pIC50: −log10 of the molar value.

Chain of PAI-1 (P05121 24-402): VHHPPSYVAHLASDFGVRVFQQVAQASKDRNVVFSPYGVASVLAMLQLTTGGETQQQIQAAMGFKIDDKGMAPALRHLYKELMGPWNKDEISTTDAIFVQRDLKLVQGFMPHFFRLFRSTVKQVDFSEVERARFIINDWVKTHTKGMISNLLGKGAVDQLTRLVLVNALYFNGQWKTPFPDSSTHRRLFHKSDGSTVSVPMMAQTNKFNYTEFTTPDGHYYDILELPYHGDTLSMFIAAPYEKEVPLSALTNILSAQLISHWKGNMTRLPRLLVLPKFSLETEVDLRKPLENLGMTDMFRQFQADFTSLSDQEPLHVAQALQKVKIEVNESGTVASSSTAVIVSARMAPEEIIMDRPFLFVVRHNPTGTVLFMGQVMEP

In the test the target is PAI-1 (Homo sapiens, UniProt P05121). Put plainly: PAI-1 assay (direct chromogenic assay, inhibitory activity of PAI-1 against uPA). Format: biochemical. The note with it: substrate N-CBZ-VAL-GLY-ARG p-nitroanilide, 10 minute incubation at 37° C., read-out: PAI-1 inhibitory activity in vitro, IC50. On the procedure:
The inhibitory activity of PAI-1 against uPA was measured by a direct chromogenic assay using the substrate N-CBZ-VAL-GLY-ARG p-nitroanilide. The tested compound was added to PAI-1 which had been diluted in activity assay buffer (0.05M Hepes, pH 7.5, 0.15M NaCl, containing 0.05% N-octyl-D-glucopyranoside and 250 μg/ml bovine serum albumin). After a 10 minute incubation at 37° C., uPA was added (0.04 units/assay), followed immediately by the addition of substrate. After reequilibration at 37° C., residual uPA activity was quantified by measuring the change in absorbance at 405 nm over 12 minutes. The concentration of active PAI-1 in the assays was the amount required to inhibit 80-85% of uPA as compared to samples containing uPA alone.
Compounds No. 1 to 37 were tested in the PAI-1 assay as described above.
As to `N#Cc1ccc(Nc2nc(-c3ccc(-c4ccccc4)cc3)cs2)cc1` [Compound 11, 4-{[4-(4-phenylphenyl)-1,3-thiazol-2-yl]amino}benzenecarbonitrile], the pIC50 is 5.80.

In the case of `CCc1cc2c(cc1-c1csc(Nc3ccc(C(=O)O)cc3)n1)C(C)(C)CCC2(C)C` [Compound 2, 4-{[4-(3-ethyl-5,5,8,8-tetramethyl-2-5,6,7,8-tetrahydronaphthyl)-1,3-thiazol-2-yl]amino}benzoic acid], the pIC50 was 5.74.

As for `CCc1cc2c(cc1-c1csc(Nc3cccc(C(=O)O)c3)n1)C(C)(C)CCC2(C)C` [Compound 3], the pIC50 was 5.96.

The term pIC50 denotes the negative decadic logarithm of the IC50, by convention in mol/L.

The values above are taken from US6586453B2, “Substituted thiazoles and the use thereof as inhibitors of plasminogen activator inhibitor-1” (3-Dimensional Pharmaceuticals, Inc., priority 2000, dated 2003).
